Experiment [1] deals with G-protein coupled receptor 55 (Homo sapiens, UniProt Q9Y2T6). Put plainly: inhibition of LPI-stimulated GPR55 beta-arrestin translocation – imaging, U2OS, beta-arrestin-GFP, LPI agonist, primary screen (AID 2013).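 Also: antagonist potency measured as reduced agonist-driven arrestin aggregation.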 Type of experiment: functional.
The next experiment deals with Streptococcus. Put plainly: GAS UMAA2166 growth inhibition – luminescence, BacTiterGlo, counter-screen for streptokinase expression inhibitor project, dose response (AID 1915).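 Also: potency for reduction of bacterial viability or growth.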 Type of experiment: functional, organism-based. In general terms: A counterscreen serves to expose hits that act by an unwanted route or on another target.
The target in another experiment is T1, Streptokinase A (Streptococcus pyogenes serotype M1, UniProt P10520).
T1 sequence (P10520 whole entry): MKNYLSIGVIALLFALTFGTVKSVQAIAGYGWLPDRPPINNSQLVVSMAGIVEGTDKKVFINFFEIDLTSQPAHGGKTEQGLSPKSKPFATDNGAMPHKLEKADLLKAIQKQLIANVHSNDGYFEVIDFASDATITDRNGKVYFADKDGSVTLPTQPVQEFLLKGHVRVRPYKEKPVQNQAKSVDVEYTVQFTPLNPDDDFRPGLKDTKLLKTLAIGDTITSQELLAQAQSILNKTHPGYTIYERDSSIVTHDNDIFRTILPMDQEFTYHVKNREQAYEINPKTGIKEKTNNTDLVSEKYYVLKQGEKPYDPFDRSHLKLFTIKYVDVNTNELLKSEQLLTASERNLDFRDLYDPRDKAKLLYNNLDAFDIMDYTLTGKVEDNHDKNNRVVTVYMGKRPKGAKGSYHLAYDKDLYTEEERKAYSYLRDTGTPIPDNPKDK
Briefly: viability-normalized secreted streptokinase activity reduction – plasminogen activation absorbance, OD405, dose response (AID 1914).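 Also: secreted streptokinase activity via plasminogen activation per viability signal from cell pellet.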 Type of experiment: functional, Streptococcus pyogenes M1 GAS.

Experiment [2] deals with Streptococcus sp. 'group A'. Briefly: Streptococcus pyogenes SK(-)GAS viability under kanamycin – luminescence, BacTiterGlo, confirmation, counter-screen for streptokinase expression inhibitor project, dose response (AID 1900). Type of experiment: functional, organism-based.
Experiment [3] can be described thus: Trypanosoma cruzi growth suppression in host cells – NIH3T3 host cells, beta-gal luminescence, confirmation (AID 2044).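 Also: intracellular parasites grown in NIH/3T3 mouse fibroblasts as host cells; luminescent beta-galactosidase reporter signal from transgenic T. cruzi replicating inside host cells; inhibitors lower the luminescence signal.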 Type of experiment: functional, cell-based.
The nature of experiment [4]: NIH3T3 cell viability loss – ATP luminescence, mouse fibroblasts, counter-screen, dose response (AID 2010).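 Also: cells exposed to compound for about 90 hours before reading.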 Type of experiment: functional, cell-based.
For the next experiment, the target named is T2, Hexokinase (Trypanosoma brucei, UniProt Q38C41).
T2 sequence (Q38C41 whole entry): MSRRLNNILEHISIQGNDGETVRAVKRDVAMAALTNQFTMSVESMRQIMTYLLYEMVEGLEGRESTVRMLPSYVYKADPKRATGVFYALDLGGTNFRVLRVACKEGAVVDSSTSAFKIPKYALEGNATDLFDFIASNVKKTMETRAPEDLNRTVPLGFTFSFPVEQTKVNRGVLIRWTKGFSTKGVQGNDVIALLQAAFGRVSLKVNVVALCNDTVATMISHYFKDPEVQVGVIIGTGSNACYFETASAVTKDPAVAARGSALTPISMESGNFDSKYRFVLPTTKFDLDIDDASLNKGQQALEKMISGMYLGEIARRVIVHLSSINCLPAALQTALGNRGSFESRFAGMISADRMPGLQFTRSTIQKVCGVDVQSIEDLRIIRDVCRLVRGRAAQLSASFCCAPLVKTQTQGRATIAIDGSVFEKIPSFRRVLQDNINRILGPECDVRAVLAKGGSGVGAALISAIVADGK
Put plainly: Confirmation assay for inhibitors of Trypanosoma brucei hexokinase 1-Analogue-first series. [Related pubchem assays (depositor defined):AID1430, AID1632, AID2516, AID2560, AID2579, AID2600, AID449725, AID492951]. Type of experiment: functional.

A short description of experiment [5]: alpha-synuclein stem-loop luciferase translation blockers – H4 neuroglioma cells, luminescence, confirmation (AID 1988). Type of experiment: functional, cell-based.
The target of experiment [6] is Heat shock protein HSP 90-alpha (Homo sapiens, UniProt P07900). Type of experiment: functional, organism-based.
Experiment [7] is described as follows: Luminescence Cell-Based Dose Response HTS to Identify Inhibitors of 5'UTR Stem-Loop Driven Prion Protein mRNA Translation in H4 Neuroglioblastoma Cells. [Related pubchem assays: 1827 (Project Summary), 1813 (Primary HTS)]. Type of experiment: functional.
Experiment [8] in a line: THP-1 cell cytotoxicity, dose response, cytotoxicity control for non-replicating M. tuberculosis project (AID 489025). Type of experiment: functional.
A short description of experiment [9]: HepG2 cell cytotoxicity, dose response, cytotoxicity control for non-replicating M. tuberculosis project (AID 489018). Type of experiment: functional. The conditions noted are these: Mycobacterium tuberculosis.
The nature of a further experiment: cells. Type of experiment: functional.
Experiment [10] is described as follows: Vero E6 cell cytotoxicity, dose response, cytotoxicity control for non-replicating M. tuberculosis project, secondary assay (AID 492998). Type of experiment: functional, VeroE6. To be noted: Vero C1008.
Experiment [11] can be described thus: luciferase reporter signal suppression in cells – H4 neuroglioma cells, luminescence, dose response (AID 1990). Type of experiment: functional, cell-based.
The target of experiment [12] is T3, Alkaline phosphatase, tissue-nonspecific isozyme (Homo sapiens, UniProt P05186).
T3 sequence (P05186 whole entry): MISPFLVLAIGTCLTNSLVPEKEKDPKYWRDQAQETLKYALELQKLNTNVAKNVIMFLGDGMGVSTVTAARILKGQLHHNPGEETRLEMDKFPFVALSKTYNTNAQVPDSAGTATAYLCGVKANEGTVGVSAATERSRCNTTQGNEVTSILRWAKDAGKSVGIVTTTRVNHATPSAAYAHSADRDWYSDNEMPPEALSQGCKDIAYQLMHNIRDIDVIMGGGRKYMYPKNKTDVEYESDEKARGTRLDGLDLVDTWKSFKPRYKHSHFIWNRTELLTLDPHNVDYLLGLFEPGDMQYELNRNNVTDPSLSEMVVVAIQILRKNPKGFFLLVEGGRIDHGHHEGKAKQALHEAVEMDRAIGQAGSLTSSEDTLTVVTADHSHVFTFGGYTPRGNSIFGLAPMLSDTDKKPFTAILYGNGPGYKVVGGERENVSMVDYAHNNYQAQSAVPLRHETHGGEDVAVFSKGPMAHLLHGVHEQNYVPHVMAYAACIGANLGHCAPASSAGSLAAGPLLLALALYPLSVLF
Put plainly: potency against alkaline phosphatase TNAP – biochemical, luminescent, dose response, SAR follow-up (AID 1056).

Calls of active or inactive are those of the source.

G-protein coupled receptor 55, sequence (Q9Y2T6 whole entry): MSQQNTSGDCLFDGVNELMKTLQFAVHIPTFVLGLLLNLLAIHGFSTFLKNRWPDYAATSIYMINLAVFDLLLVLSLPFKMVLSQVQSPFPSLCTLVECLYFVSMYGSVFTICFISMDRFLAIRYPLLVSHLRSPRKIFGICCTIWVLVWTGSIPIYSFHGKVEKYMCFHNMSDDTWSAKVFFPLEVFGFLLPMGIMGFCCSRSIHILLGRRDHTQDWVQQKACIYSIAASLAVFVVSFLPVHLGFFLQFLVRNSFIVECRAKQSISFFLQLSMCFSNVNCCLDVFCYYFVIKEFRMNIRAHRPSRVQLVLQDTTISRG

Broadly, the IC50 is the concentration that gives 50% inhibition. By EC50 is commonly meant the concentration at which the effect is half-maximal. As to `COc1ccc(C(=O)NC(=S)N(Cc2ccccc2)Cc2ccccc2)cc1`, the IC50 in experiment [1] was 4.36 µM (active). The EC50 was 14.5 µM (active) in the experiment on Streptococcus, > 150 µM (not active) at Streptokinase A and 0.883 µM (active) in [2].
In the case of `O=C(NC12CC3CC(CC(C3)C1)C2)c1ccc(-c2ccc(Cl)cc2)o1`, the EC50 in [3] was 2.11 µM (active); in experiment [4], > 60 µM (not active). The half-inhibitory concentration (IC50) in experiment [1] is 0.598 µM (active).
Regarding `COc1cccc(NC(=O)Cn2sc3ccccc3c2=O)c1`, at Hexokinase, the IC50 was 5.03 µM (active).
On the same count and under the same terms, as for `O=C(Nc1cc(Cl)ccc1C(=O)O)c1ccc(Cl)cc1`, the figure is > 25 µM (inactive).
The term AC50 denotes the midpoint of the concentration-response curve, whichever way the signal moves. What is called CC50 is the concentration giving 50% cytotoxicity. Consider `CC(C)Cn1c(=O)c(C(=O)Nc2ccncc2)c(O)c2ccccc21`, for which the EC50 in [5] is 10.9 µM (active); in the experiment with Streptococcus, 7.31 µM (active); in experiment [2], 5.54 µM (active); in experiment [7], > 120 µM (not active); in experiment [11] it was > 120 µM (not active). Moreover, the AC50 in experiment [6] is 6.7 µM (active). Further, the values for the CC50 in experiment [8], in experiment [9] and in experiment [10] were 12.4 µM (active), 19.1 µM (active) and 16.5 µM (active), respectively. Besides, the IC50 in the experiment “cells” is 16.9 µM (active).
In the case of `COc1cc(C(=O)CSc2nc(C)cc(C)n2)ccc1O`, in [12], the IC50 was > 100 µM (inactive).
With `Nc1ccc(N2CCCCC2)c(S(=O)(=O)Nc2ccccc2Cl)c1`, the IC50 in [1] is 3.53 µM (active).
Take `CC(C(=O)Nc1ccccc1)n1sc2ccccc2c1=O` (configuration not stated): the IC50 at Hexokinase is 8.14 µM (active).

Values taken from ChEMBL document CHEMBL1201862, “PubChem BioAssay data set” (2004).
